Assay [1] deals with T1, human cholecystokinin-2 receptor (CCK-2R) (Homo sapiens, UniProt P32239).
T1 construct: host or cells: 1321-N1 cells (plasma membranes prepared by Evotec AG Hamburg)
T1 sequence (P32239 1-447): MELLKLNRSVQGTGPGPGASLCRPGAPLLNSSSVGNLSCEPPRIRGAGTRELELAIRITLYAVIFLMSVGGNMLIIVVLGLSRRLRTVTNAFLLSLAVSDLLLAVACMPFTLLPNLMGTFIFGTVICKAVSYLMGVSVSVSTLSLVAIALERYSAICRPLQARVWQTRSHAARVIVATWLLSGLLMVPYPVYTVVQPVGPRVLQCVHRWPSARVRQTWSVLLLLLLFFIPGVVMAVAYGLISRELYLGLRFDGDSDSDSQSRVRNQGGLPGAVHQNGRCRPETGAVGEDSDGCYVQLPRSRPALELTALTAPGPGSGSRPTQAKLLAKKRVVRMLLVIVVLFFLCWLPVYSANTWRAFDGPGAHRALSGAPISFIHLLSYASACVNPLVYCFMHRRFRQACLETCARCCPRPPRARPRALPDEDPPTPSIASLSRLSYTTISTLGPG
The assay is described as follows: In vitro potency on CCK-2R, whole cell functional assay (IP1 accumulation, IP-One HTRF). The assay is classed as cell-based. (TR-FRET usually uses a lanthanide donor and a delayed reading to cut background.)

In assay [2] the target is T1, human cholecystokinin-2 receptor (CCK-2R). The assay is described as follows: In vitro receptor binding to CCK-2R, SPA displacement of [125I]-CCK-8s from plasma membranes.
In assay [3] the target is T2, human cholecystokinin-1 receptor (CCK-1R) (Homo sapiens, UniProt P32238).
T2 construct: host or cells: 1321-N1 cells
T2 sequence (P32238 1-428): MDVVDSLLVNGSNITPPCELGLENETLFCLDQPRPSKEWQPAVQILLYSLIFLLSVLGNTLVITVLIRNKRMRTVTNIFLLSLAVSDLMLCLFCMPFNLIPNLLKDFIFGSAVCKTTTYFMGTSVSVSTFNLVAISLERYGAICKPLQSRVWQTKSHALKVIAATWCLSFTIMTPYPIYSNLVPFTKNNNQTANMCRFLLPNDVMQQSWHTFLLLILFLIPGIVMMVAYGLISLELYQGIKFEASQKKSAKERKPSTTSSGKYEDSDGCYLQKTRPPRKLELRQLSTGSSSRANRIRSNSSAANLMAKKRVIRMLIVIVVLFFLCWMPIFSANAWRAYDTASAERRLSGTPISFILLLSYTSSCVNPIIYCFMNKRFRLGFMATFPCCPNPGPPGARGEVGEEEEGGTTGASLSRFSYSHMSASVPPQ
The assay is described as follows: In vitro potency on CCK-1R, whole cell functional assay (IP1 accumulation, IP-One HTRF). Format: cell-based.

Setting [4] is: 1321-N1 cells stably expressing CCK-2R, IP1 accumulation, highest dose tested 1×10^6 pM, read-out: EC50 (CCK-2R).
[5] abbreviates: 1321-N1 cells stably expressing CCK-1R, IP1 accumulation, average of min. three replicates, read-out: EC50 (CCK-1R).
Setting [6] is: displacement of [125I]-CCK-8s, plasma membranes of 1321-N1 cells expressing CCK-2R, highest dose tested 1×10^7 pM, read-out: IC50 (CCK-2R).

Read-outs that look alike come from different tables or passages of the source. Starred links: 1 amine or outer side, 2 acyl side, 3 side chain; linkers in the order of their positions; H or OH if unused. Non-standard residues stand in square brackets, D forms with d. Residues, ends and D or L forms follow the SMILES beside them. *: point of attachment. Phe(4-CH2SO3H) = N[C@@H](Cc1ccc(CS(=O)(=O)O)cc1)C(=O)O; sY = N[C@@H](Cc1ccc(OS(=O)(=O)O)cc1)C(=O)O; C18 diacid = O=C(O)CCCCCCCCCCCCCCCCC(=O)*; γGlu = O=C(O)[C@H](CCC(=O)[*:2])N[*:1]; Met(O2) = CS(=O)(=O)CC[C@H](N)C(=O)O; NMeF = CN[C@@H](Cc1ccccc1)C(=O)O; dNMeD = CN[C@H](CC(=O)O)C(=O)O; Nle = CCCC[C@H](N)C(=O)O; AEEA = NCCOCCOCC(=O)O

Usually EC50 stands for the concentration that produces a half-maximal response. As usually defined, the IC50 is the midpoint of a concentration-inhibition curve. In the case of `CC(C)C[C@H](NC(=O)[C@H](Cc1ccc(OS(=O)(=O)O)cc1)NC(=O)[C@H](CC(=O)O)NC(=O)COCCOCCNC(=O)COCCOCCNC(=O)CC[C@H](NC(=O)CCCCCCCCCCCCCCCCC(=O)O)C(=O)O)C(=O)NCC(=O)N[C@@H](Cc1c[nH]c2ccccc12)C(=O)N[C@@H](CCS(C)(=O)=O)C(=O)N(C)[C@H](CC(=O)O)C(=O)N(C)[C@@H](Cc1ccccc1)C(N)=O` [Example 12, 2-[2-[2-[[2-[2-[2-[[(4S)-4-Carboxy-4-(17-carboxyheptadecanoylamino)butanoyl]amino]ethoxy]ethoxy]acetyl]amino]ethoxy]ethoxy]acetyl-Asp-sTyr-Leu-Gly-Trp-Met(O2)-DMeAsp-MePhe-amide] ({C18 diacid-γGlu-AEEA-AEEA}-D[sY]LGW[Met(O2)][dNMeD][NMeF]-NH2), the results for the EC50 in assay [1] (setting [4]) and in assay [3] (setting [5]) were above 1000 nM and 0.14 nM, respectively. Besides, the IC50 in assay [2] was above 10 µM.

In the case of `CCCC[C@H](NC(=O)[C@H](Cc1c[nH]c2ccccc12)NC(=O)CNC(=O)[C@H](CCCNC(=N)N)NC(=O)[C@H](Cc1ccc(OS(=O)(=O)O)cc1)NC(=O)[C@H](CC(=O)O)NC(=O)COCCOCCNC(=O)COCCOCCNC(=O)CC[C@H](NC(=O)CCCCCCCCCCCCCCCCC(=O)O)C(=O)O)C(=O)N(C)[C@H](CC(=O)O)C(=O)N(C)[C@@H](Cc1ccccc1)C(N)=O` [Example 17, 2-[2-[2-[[2-[2-[2-[[(4S)-4-Carboxy-4-(17-carboxyheptadecanoylamino)butanoyl]amino]ethoxy]ethoxy]acetyl]amino]ethoxy]ethoxy]acetyl-Asp-sTyr-Arg-Gly-Trp-Nle-DMeAsp-MePhe-amide] ({C18 diacid-γGlu-AEEA-AEEA}-D[sY]RGW[Nle][dNMeD][NMeF]-NH2), the figures for the EC50 in assay [1] (setting [4]) and in assay [3] (setting [5]) were 270 nM and 0.21 nM, respectively. The IC50 in assay [2] (setting [6]) came to 0.88 µM.

On to `CCCC[C@H](NC(=O)[C@H](Cc1ccc(CS(=O)(=O)O)cc1)NC(=O)[C@@H](N)CC(=O)O)C(=O)NCC(=O)N[C@@H](Cc1c[nH]c2ccccc12)C(=O)N[C@@H](CCCC)C(=O)N(C)[C@H](CC(=O)O)C(=O)N(C)[C@@H](Cc1ccccc1)C(N)=O` [Example 55, Asp-Phe(4-sulfomethyl)-Nle-Gly-Trp-Nle-DMeAsp-MePhe-amide] (H-D[Phe(4-CH2SO3H)][Nle]GW[Nle][dNMeD][NMeF]-NH2), for which the results for the EC50 in assay [1] (setting [4]) and in assay [3] (setting [5]) were above 1000 nM and 0.25 nM, respectively. The half-inhibitory concentration (IC50) in assay [2] (setting [6]) was above 10 µM.

As for `CCCC[C@H](NC(=O)[C@H](Cc1c[nH]c2ccccc12)NC(=O)CNC(=O)[C@H](CC(C)C)NC(=O)[C@H](Cc1ccc(OS(=O)(=O)O)cc1)NC(=O)[C@@H](N)CC(=O)O)C(=O)N(C)[C@H](CC(=O)O)C(=O)N[C@@H](Cc1ccccc1)C(N)=O` [Example 58, Asp-sTyr-Leu-Gly-Trp-Nle-DMeAsp-Phe-amide], the results for the EC50 in assay [1] (setting [4]) and in assay [3] (setting [5]) were above 1000 nM and 0.21 nM, respectively. In assay [2] (setting [6]), the IC50 is above 10 µM.

Regarding `CC(C)C[C@H](NC(=O)[C@H](Cc1ccc(OS(=O)(=O)O)cc1)NC(=O)[C@@H](N)CC(=O)O)C(=O)NCC(=O)N[C@@H](Cc1c[nH]c2ccccc12)C(=O)N[C@@H](CC(C)C)C(=O)N(C)[C@H](CC(=O)O)C(=O)N(C)[C@@H](Cc1ccccc1)C(N)=O` [Example 64, Asp-sTyr-Leu-Gly-Trp-Leu-DMeAsp-MePhe-amide], the values for the concentration giving a half-maximal response (EC50) in assay [1] and in assay [3] were above 1000 nM and 0.25 nM, respectively. This compound also showed an IC50 in assay [2] above 10 µM.

`CCCC[C@H](NC(=O)[C@H](Cc1c[nH]c2ccccc12)NC(=O)CNC(=O)[C@@H]1CCCN1C(=O)[C@H](Cc1ccc(OS(=O)(=O)O)cc1)NC(=O)[C@@H](N)CC(=O)O)C(=O)N(C)[C@H](CC(=O)O)C(=O)N(C)[C@@H](Cc1ccccc1)C(N)=O` [Example 69, Asp-sTyr-Pro-Gly-Trp-Nle-DMeAsp-MePhe-amide] (H-D[sY]PGW[Nle][dNMeD][NMeF]-NH2): the EC50 is above 1000 nM in assay [1] (setting [4]) and 0.19 nM in assay [3] (setting [5]). Moreover, the concentration for half-maximal inhibition (IC50) in assay [2] (setting [6]) was above 10 µM.

In the case of `CCCC[C@H](NC(=O)[C@H](Cc1c[nH]c2ccccc12)NC(=O)CNC(=O)[C@H](CC(C)C)NC(=O)[C@H](Cc1ccc(OS(=O)(=O)O)cc1)NC(=O)[C@@H](N)CCC(=O)O)C(=O)N(C)[C@H](CC(=O)O)C(=O)N(C)[C@@H](Cc1ccccc1)C(N)=O` [Example 77, Glu-sTyr-Leu-Gly-Trp-Nle-DMeAsp-MePhe-amide] (H-E[sY]LGW[Nle][dNMeD][NMeF]-NH2), the EC50 is 920 nM in assay [1] (setting [4]) and 0.21 nM in assay [3] (setting [5]). The IC50 in assay [2] (setting [6]) was above 10 µM.

As to `CCCC[C@H](NC(=O)[C@H](Cc1c[nH]c2ccccc12)NC(=O)CNC(=O)[C@H](CO)NC(=O)[C@H](Cc1ccc(OS(=O)(=O)O)cc1)NC(=O)[C@@H](N)CC(=O)O)C(=O)N(C)[C@H](CC(=O)O)C(=O)N(C)[C@@H](Cc1ccccc1)C(N)=O` [Example 79, Asp-sTyr-Ser-Gly-Trp-Nle-DMeAsp-MePhe-amide] (H-D[sY]SGW[Nle][dNMeD][NMeF]-NH2), the EC50 in assay [1] (setting [4]) is above 1000 nM; in assay [3] (setting [5]), 0.19 nM.

Take `CCCC[C@H](NC(=O)[C@H](Cc1c[nH]c2ccccc12)NC(=O)CNC(=O)[C@H](C)NC(=O)[C@H](Cc1ccc(OS(=O)(=O)O)cc1)NC(=O)[C@@H](N)CC(=O)O)C(=O)N(C)[C@H](CC(=O)O)C(=O)N(C)[C@@H](Cc1ccccc1)C(N)=O` [Example 80, Asp-sTyr-Ala-Gly-Trp-Nle-DMeAsp-MePhe-amide] (H-D[sY]AGW[Nle][dNMeD][NMeF]-NH2): the EC50 in assay [1] (setting [4]) was above 1000 nM; in assay [3] (setting [5]), 0.16 nM. For the same compound, in assay [2] (setting [6]), the IC50 is above 10 µM.

(Values after patent US20170008928A1, “NOVEL PEPTIDES AND PEPTIDE DERIVATIVES AND USES THEREOF” (Novo Nordisk A/S, priority 2015, published 2017).)
